ChEMBL document CHEMBL4316641, “Synthesis and Anti-HIV Profile of a Novel Tetrahydroindazolylbenzamide Derivative Obtained by Oxazolone Chemistry” (ACS Med Chem Lett, 2019)
Calls of active or inactive are those of the source. The rule behind the calls is not given here.

Assays:
[1] = test system: Human immunodeficiency virus; assay: Antiviral activity against HIV infected in human MT4 cells assessed as inhibition of virus-induced cytopathogenicity by MTT assay; type: functional, organism-based
[2] = test system: Human immunodeficiency virus; assay: Inhibition of reverse transcriptase in HIV1 NL4.3 infected in human HeLaP4 cells assessed as reduction in formation of reverse transcribed DNA at 50 fold antiviral EC50 incubated up to 60 mins by quantitative PCR analysis; type: cell-based
[3] = target: Human immunodeficiency virus type 1 integrase (Human immunodeficiency virus 1) (UniProt Q7ZJM1); assay: Inhibition of integrase in HIV1 NL4.3 infected in human HeLaP4 cells assessed as increase in increase in 2-LTR circles at 50 fold antiviral EC50 incubated up to 60 mins by quantitative PCR analysis; type: cell-based
Human immunodeficiency virus type 1 integrase (Human immunodeficiency virus 1), sequence (Q7ZJM1 as listed by the source): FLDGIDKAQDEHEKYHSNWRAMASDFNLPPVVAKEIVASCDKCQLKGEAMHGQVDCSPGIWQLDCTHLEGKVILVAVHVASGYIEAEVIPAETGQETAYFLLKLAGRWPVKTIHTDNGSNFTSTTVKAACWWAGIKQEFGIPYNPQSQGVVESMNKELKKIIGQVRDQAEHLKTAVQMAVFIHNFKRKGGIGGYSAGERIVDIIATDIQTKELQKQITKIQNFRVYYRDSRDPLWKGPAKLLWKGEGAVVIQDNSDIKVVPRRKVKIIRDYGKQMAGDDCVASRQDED

[4] = target: Human immunodeficiency virus type 1 integrase (Human immunodeficiency virus 1) (UniProt Q7ZJM1); assay: Inhibition of HIV integrase strand transfer activity
[5] = Selectivity index, ratio of CC50 for cytotoxicity against human MT4 cells assessed as reduction in cell viability by MTT assay to EC50 for antiviral activity against HIV infected in human MT4 cells assessed as inhibition of virus-induced cytopathogenicity by MTT assay; type: toxicity, cell-based; settings: read-out: Ratio CC50/EC50
[6] = test system: Human immunodeficiency virus; assay: Inhibition of reverse transcriptase in HIV1 NL4.3 infected in human HeLaP4 cells assessed as reduction in late reverse transcription by time of addition assay; type: cell-based
[7] = test system: Human immunodeficiency virus; assay: Inhibition of reverse transcriptase in HIV1 NL4.3 infected in human HeLaP4 cells assessed as reduction in integrated provirus formation at 50 fold antiviral EC50 incubated up to 60 mins by quantitative PCR analysis; type: cell-based
[8] = test system: Human immunodeficiency virus; assay: Inhibition of reverse transcriptase in HIV1 NL4.3 infected in human HeLaP4 cells assessed as reduction in formation of 2-LTRs at 50 fold antiviral EC50 incubated up to 60 mins by quantitative PCR analysis; type: cell-based
[9] = Cytotoxicity against human MT4 cells assessed as reduction in cell viability by MTT assay; type: cell-based

With CC(N)c1nn(-c2ccc(C(=O)O)cc2)c2c1C(=O)CC(C)(C)C2.Cl (racemic) the EC50 [1] was “Not Active”.
In the case of Cc1cn([C@H]2C[C@H](N=[N+]=[N-])[C@@H](CO)O2)c(=O)[nH]c1=O, the inhibition [2] is reported as “Active”.
With CC(NC(=O)c1ccccc1)c1nn(-c2ccc(C#N)cc2)c2c1C(=O)CC(C)(C)C2 (racemic) the EC50 [1] was “Not Active”.
For CC(NC(=O)c1ccccc1)c1nn(-c2ccc(C(N)=O)cc2)c2c1C(=O)CC(C)(C)C2 (racemic), the inhibition [3] was “inactive”, the inhibition [4] was “inactive” and the selectivity ratio [5] was 68. For the same molecule, the inhibition [6] was “Active”, the inhibition [7] was “Active” and the EC50 ([1]; Human immunodeficiency virus 1, MT4, read-out: EC50) was 2.77 µM. The inhibition [8] was “Active”, the CC50 [9] was 119 µM and the inhibition [2] was “Active”.
